Test results: patent publication US20160115540A1, “PRODRUGS AND DRUGS” (Biogen MA Inc., priority 2013, published 2016)
Structures can show the parent of a compound that is named as a salt.

Test system: spleen
Assay: Transcriptional profiling on Affymetrix GeneChips, single dose, naïve mice: spleen
Type: in vivo, C57BL/6 mice
Details: for Number of differentially expressed genes identified: Spleen: Naïve, Single Dose; for FC Pdia4 (protein disulfide isomerase associated 4): probe 1416497_PM_at; for FC Aox1 (aldehyde oxidase 1): probe 1419435_PM_at; for FC Osgin1 (oxidative stress induced growth inhibitor 1): probe 1424022_PM_at; for FC Kirrel (kin of IRRE like (Drosophila)): probe 1434797_PM_at; for FC 9130221J17Rik (RIKEN cDNA 9130221J17 gene): probe 1443159_PM_at; for Number of genes, DMF Only / MMF Only: Spleen
Description: Treated mice were sacrificed at 2, 7, or 12 hours. Tissues (liver, spleen, kidney, jejunum, cortex, hippocampus, striatum and whole blood) were collected and analyzed by transcriptional profiling on mouse Affymetrix GeneChips.
Tissues (liver, spleen, kidney, jejunum, cortex, hippocampus, striatum and whole blood) were collected and analyzed by transcriptional profiling on mouse Affymetrix GeneChips.
Animals were exposed to CO2 and whole blood collected via cardiac puncture. Two 100 μl aliquots of whole blood were collected in 1.5 mL microcentrifuge tubes and snap frozen in liquid nitrogen. Peripheral (liver, spleen, kidney and jejunum) and CNS brain (cerebellum, hippocampus, striatum and cortex) tissues were harvested and snap frozen in liquid nitrogen, with special care taken to collect tissues of similar size and from the same location. All samples were stored at −80° C. until RNA extraction was conducted.
For RNA preparation, frozen tissues were placed in 2 mL RNAse-free 96-well blocks with 1.5 mL QIAzol Lysis Reagent (QIAgen) and a 3.2 mm stainless steel bead (BioSpec Products, Bartlesville, Okla.). Tissues were disrupted for four cycles of 45 seconds in a Mini-Beadbeater (Biospec Products). RNA was extracted in chloroform and the aqueous phase was mixed with an equal volume of 70% ethanol. Extracted RNA was applied to RNeasy 96 plates and purified by the spin method according to the manufacturer's protocol (RNeasy 96 Universal Tissue Protocol, QIAgen, Hilden Germany).
Automated sample amplifications and biotin labelings were carried out using the NuGEN Ovation RNA Amplification system V2 (Cat #3100), Ovation WB reagent (Cat #1300) and Encore Biotin module (Cat #4200) (NuGEN Technologies, Inc, San Carlos, Calif.) according to manufacturer's recommendations using an Arrayplex automated liquid handler (Beckman Coulter, Indianapolis, Ind.). Two micrograms of biotin labeled sscDNA probe were hybridized to Affymetrix GeneChip Affymetrix HT_MG-430_PM plate arrays with modified conditions as described in Allaire et al. Washing and staining of the hybridized arrays were completed as described in the GeneChip Expression analysis technical manual for HT plate arrays using the Genechip® Array Station (Affymetrix, Santa Clara, Calif.) with modifications as described in Allaire et al. The processed GeneChip® plate arrays were scanned using GeneTitan scanner (Affymetrix, Santa Clara, Calif.).
Affymetrix scans were subject to quality control (QC) measures. These tests included a visual inspection of the distribution of raw signal intensities and an assessment of RNA degradation, relative log expression (RLE), and normalized unsealed standard error (NUSE). All sample scans that passed these QC metrics were included in the analysis.
All CEL files were subjected to GC-content-based Robust Multi-array Average (GCRMA) normalization (version 2.20.0) (Irizarry R A, et al. Nucleic Acids Res 2003; 31:e15; Li C, et al. Genome Biol 2001; 2:[…]0032). Expression levels were log (base 2) transformed.
All calculations and analyses were carried out using R (version 2.11.1) and Bioconductor computational tools (Gentleman R. Springer Science+Business Media 2005).

[1] = 100 mpk, vs Vehicle, 2 h after last dosing
[2] = 100 mpk, vs Vehicle, 7 h after last dosing
[3] = 100 mpk, vs Vehicle, 12 h after last dosing

For COC(=O)/C=C/C(=O)OC [DMF, dimethyl fumarate], the “Number of differentially expressed genes identified: Spleen” value (“Number of differentially” for short) (100 mpk DMF-vs-100 mpk MMF, 2 h after last dosing) was 0, the “Number of differentially” value (100 mpk DMF-vs-100 mpk MMF, 7 h after last dosing) was 0 and the “Number of differentially” value (100 mpk DMF-vs-100 mpk MMF, 12 h after last dosing) was 0. For the same compound, the “Number of differentially” value [1] was 13, the “Number of differentially” value [2] was 2 and the “Number of differentially” value [3] was 0. The “genes in differential expression gene list” value (SPLEEN, 100DMF-vs-100MMF, 2 h) was “None”, the “genes in differential expression gene list” value (SPLEEN, 100DMF-vs-100MMF, 7 h) was “None” and the “genes in differential expression gene list” value (SPLEEN, 100DMF-vs-100MMF, 12 h) was “None”. For the same compound, the “FC Pdia4 (protein disulfide isomerase associated 4)” value (SPLEEN, 100DMF-vs-Veh, 2 h) was −1.60, the “FC Aox1 (aldehyde oxidase 1)” value (SPLEEN, 100DMF-vs-Veh, 2 h) was 2.61 and the “FC Srxn1 (sulfiredoxin 1 homolog (S. cerevisiae))” value (SPLEEN, 100DMF-vs-Veh, 2 h, probe 1419942_PM_at) was 2.16. The “FC Txnrd1 (thioredoxin reductase 1)” value (SPLEEN, 100DMF-vs-Veh, 2 h, probe 1421529_PM_a_at) was 1.55, the “FC Osgin1 (oxidative stress induced growth inhibitor 1)” value (SPLEEN, 100DMF-vs-Veh, 2 h) was 1.78 and the “FC Gclc (glutamate-cysteine ligase, catalytic subunit)” value (SPLEEN, 100DMF-vs-Veh, 2 h, probe 1424296_PM_at) was 1.76. For the same compound, the “FC Txnrd1 (thioredoxin reductase 1)” value (SPLEEN, 100DMF-vs-Veh, 2 h, probe 1424486_PM_a_at) was 2.41, the “FC Txnrd1 (thioredoxin reductase 1)” value (SPLEEN, 100DMF-vs-Veh, 2 h, probe 1424487_PM_x_at) was 1.73 and the “FC Srxn1 (sulfiredoxin 1 homolog (S. cerevisiae))” value (SPLEEN, 100DMF-vs-Veh, 2 h, probe 1426875_PM_s_at) was 2.02. For the same compound, the “FC Kirrel (kin of IRRE like (Drosophila))” value (SPLEEN, 100DMF-vs-Veh, 2 h) was −1.54, the “FC 9130221J17Rik (RIKEN cDNA 9130221J17 gene)” value (SPLEEN, 100DMF-vs-Veh, 2 h) was 1.52 and the “FC Mafg (v-maf musculoaponeurotic fibrosarcoma oncogene family, protein G (avian))” value (SPLEEN, 100DMF-vs-Veh, 2 h, probe 1448916_PM_at) was 1.58. The “FC Srxn1 (sulfiredoxin 1 homolog (S. cerevisiae))” value (SPLEEN, 100DMF-vs-Veh, 2 h, probe 1451680_PM_at) was 1.53, the “FC Srxn1 (sulfiredoxin 1 homolog (S. cerevisiae))” value (SPLEEN, 100DMF-vs-Veh, 7 h, probe 1419942_PM_at) was 1.67 and the “FC Srxn1 (sulfiredoxin 1 homolog (S. cerevisiae))” value (SPLEEN, 100DMF-vs-Veh, 7 h, probe 1426875_PM_s_at) was 1.50. The “Number of genes, DMF Only / MMF Only” value was 2, the “Aox1 (probe set 1419435_PM_at) differential expression” value (spleen, 2 hr) was 2.61 and the “Gclc (probe set 1424296_PM_at) differential expression” value (spleen, 2 hr) was 1.76. The “Kirrel (probe set 1434797_PM_at) differential expression” value (spleen, 2 hr) was −1.54, the “Mafg (probe set 1448916_PM_at) differential expression” value (spleen, 2 hr) was 1.58 and the “Osgin1 (probe set 1424022_PM_at) differential expression” value (spleen, 2 hr) was 1.78. The “Pdia4 (probe set 1416497_PM_at) differential expression” value (spleen, 2 hr) was −1.60, the “Srxn1 (probe set 1419942_PM_at) differential expression” value (spleen, 2 hr) was 2.16 and the “Txnrd1 (probe set 1424486_PM_a_at) differential expression” value (spleen, 2 hr) was 2.41. The “Srxn1 (probe set 1419942_PM_at) differential expression” value (spleen, 7 hr) was 1.67 and the “genes in differential expression gene list” value (spleen, 100DMF-vs-Veh, 12 h) was “None”.

In the case of COC(=O)/C=C/C(=O)O [MMF, monomethyl fumarate], the “Number of differentially” value [1] is reported as 12, the “Number of differentially” value [2] is reported as 2 and the “Number of differentially” value [3] is reported as 0. The “FC Pdia4 (protein disulfide isomerase associated 4)” value (SPLEEN, 100MMF-vs-Veh, 2 h) was −1.59, the “FC Aox1 (aldehyde oxidase 1)” value (SPLEEN, 100MMF-vs-Veh, 2 h) was 2.35 and the “FC Srxn1 (sulfiredoxin 1 homolog (S. cerevisiae))” value (SPLEEN, 100MMF-vs-Veh, 2 h, probe 1419942_PM_at) was 2.02. The “FC Txnrd1 (thioredoxin reductase 1)” value (SPLEEN, 100MMF-vs-Veh, 2 h, probe 1421529_PM_a_at) was 1.53, the “FC Osgin1 (oxidative stress induced growth inhibitor 1)” value (SPLEEN, 100MMF-vs-Veh, 2 h) was 1.83 and the “FC Txnrd1 (thioredoxin reductase 1)” value (SPLEEN, 100MMF-vs-Veh, 2 h, probe 1424486_PM_a_at) was 2.14. For the same compound, the “FC Srxn1 (sulfiredoxin 1 homolog (S. cerevisiae))” value (SPLEEN, 100MMF-vs-Veh, 2 h, probe 1426875_PM_s_at) was 1.92, the “FC 6330406I15Rik (RIKEN cDNA 6330406I15 gene)” value (SPLEEN, 100MMF-vs-Veh, 2 h, probe 1426937_PM_at) was −1.58 and the “FC Kirrel (kin of IRRE like (Drosophila))” value (SPLEEN, 100MMF-vs-Veh, 2 h) was −1.65. The “FC Armc8 (armadillo repeat containing 8)” value (SPLEEN, 100MMF-vs-Veh, 2 h, probe 1434951_PM_at) was −1.54, the “FC 9130221J17Rik (RIKEN cDNA 9130221J17 gene)” value (SPLEEN, 100MMF-vs-Veh, 2 h) was 1.55 and the “FC probe 1446490_PM_at (no gene named)” value (SPLEEN, 100MMF-vs-Veh, 2 h, probe 1446490_PM_at) was −1.76. For the same compound, the “FC Srxn1 (sulfiredoxin 1 homolog (S. cerevisiae))” value (SPLEEN, 100MMF-vs-Veh, 7 h, probe 1419942_PM_at) was 1.87, the “FC Srxn1 (sulfiredoxin 1 homolog (S. cerevisiae))” value (SPLEEN, 100MMF-vs-Veh, 7 h, probe 1426875_PM_s_at) was 1.69 and the “Number of genes, DMF Only / MMF Only” value was 3. The “Aox1 (probe set 1419435_PM_at) differential expression” value (spleen, 2 hr) was 2.35, the “Armc8 (probe set 1434951_PM_at) differential expression” value (spleen, 2 hr) was −1.54 and the “Kirrel (probe set 1434797_PM_at) differential expression” value (spleen, 2 hr) was −1.65. The “Osgin1 (probe set 1424022_PM_at) differential expression” value (spleen, 2 hr) was 1.83, the “Paip1 (probe set 1425521_PM_at) differential expression” value (spleen, 2 hr) was −1.56 and the “Pdia4 (probe set 1416497_PM_at) differential expression” value (spleen, 2 hr) was −1.59. For the same compound, the “Rod1 (probe set 1424084_PM_at) differential expression” value (spleen, 2 hr) was −1.54, the “Srxn1 (probe set 1419942_PM_at) differential expression” value (spleen, 2 hr) was 2.02 and the “Txnrd1 (probe set 1424486_PM_a_at) differential expression” value (spleen, 2 hr) was 2.14. For the same compound, the “Srxn1 (probe set 1419942_PM_at) differential expression” value (spleen, 7 hr) was 1.87 and the “Srxn1 mRNA fold change vs vehicle” value (spleen, 2 hr after single 100 mg/kg oral dose) was 1.87.
